One data set has as its target T1, human GLP-1 receptor (Homo sapiens, UniProt P43220).
T1 construct: expressed in transfected cells; host or cells: membranes of BHK cells (parent BHKTS13), clone FCW467-12A
The data set can be described thus: Assay (II)(a) GLP-1 receptor binding, 125I-GLP-1 displacement SPA on BHK membranes. The following applies: without presence of serum albumin; read-out: GLP-1R IC50 (nM) [Assay (II)(a)]. The procedure, abridged: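 Membranes from BHK cells (clone FCW467-12A) stably expressing human GLP-1R were incubated with serially diluted compounds (8×10EE-13 to 8×10EE-7 M before addition) and [125I]-GLP-1-(7-36)NH2 with WGA SPA beads, 2 h at 30° C, pH 7.4. IC50 taken from displacement by non-linear regression. Run at ≤0.001% or 2.0% final serum albumin.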

Data set [1] can be described thus: Assay (III) ThT fibrillation assay for physical stability. The conditions noted are these: 250 μM in 10 mM HEPES buffer, 37° C., shaking 960 rpm. The data set is classed as physicochemical. The source says: The purpose of this assay is to assess the physical stability of the glucagon derivatives of the invention in aqueous solutions. Low physical stability of a peptide may lead to amyloid fibril formation, which is observed as well-ordered, thread-like macromolecular structures in the sample, which eventually may lead to gel formation. This has traditionally been measured by visual inspection of the sample. However, that kind of measurement is very subjective and depending on the observer. Therefore, the application of a small molecule indicator probe is much more advantageous. Thioflavin T (ThT) is such a probe and has a distinct fluorescence signature when binding to fibrils [Naiki et al. (1989) Anal. Biochem. 177, 244-249; LeVine (1999) Methods. Enzymol. 309, 274-284]. […] The constant t0 is the time needed to reach 50% of maximum fluorescence. The two important parameters describing fibril formation are the lag-time calculated by t0−2τ and the apparent rate constant kapp 1/τ. Samples were prepared freshly before each assay. Each sample composition is described in the legends. The pH of the sample was adjusted to the desired value using appropriate amounts of concentrated NaOH and HCl. Thioflavin T was added to the samples from a stock solution in H2O to a final concentration of 1 μM. Sample aliquots of 200 μl (250 μM of the glucagon derivative in 10 mM HEPES buffer, pH 7.5) were placed in a 96 well microtiter plate (Packard OptiPlate™-96, white polystyrene). Usually, four or eight replica of each sample (corresponding to one test condition) were placed in one column of wells. The plate was sealed with Scotch Pad (Qiagen). Incubation at given temperature, shaking and measurement of the ThT fluorescence emission were done in a Fluoroskan Ascent FL fluorescence platereader (Thermo Labsystems). The temperature was adjusted to 37° C. The plate was incubated with orbital shaking adjusted to 960 rpm with an amplitude of 1 mm. Fluorescence measurement was done using excitation through a 444 nm filter and measurement of emission through a 485 nm filter. Each run was initiated by incubating the plate at the assay temperature for 10 min. The plate was measured every 20 minutes for a desired period of time. Between each measurement, the plate was shaken and heated as described. After completion of the ThT assay the four or eight replica of each sample was pooled and centrifuged at 20000 rpm for 30 minutes at 18° C. The supernatant was filtered through a 0.22 μm filter and an aliquot was transferred to a HPLC vial. The concentration of peptide in the initial sample and in the filtered supernatant was determined by reverse phase HPLC using an appropriate standard as reference. The percentage fraction the concentration of the filtered sample constituted of the initial sample concentration was reported as the recovery. The measurement points were saved in Microsoft Excel format for further processing and curve drawing and fitting was performed using GraphPad Prism. The background emission from ThT in the absence of fibrils was negligible. The data points are typically a mean of four or eight samples and shown with standard deviation error bars. Only data obtained in the same experiment (i.e. samples on the same plate) are presented in the same graph ensuring a relative measure of fibrillation between experiments. The data set may be fitted to Eq. (1).

Starred links: 1 amine or outer side, 2 acyl side, 3 side chain; linkers in the order of their positions; H or OH if unused. Non-standard residues stand in square brackets, D forms with d. Residues, ends and D or L forms follow the SMILES beside them. Groups on a side chain read outwards from the residue. *: point of attachment. C18 diacid = O=C(O)CCCCCCCCCCCCCCCCC(=O)*; γGlu = O=C(O)[C@H](CCC(=O)[*:2])N[*:1]; AEEA = NCCOCCOCC(=O)O; Aib = CC(C)(N)C(=O)O

By IC50 is commonly meant the midpoint of a concentration-inhibition curve.

T1 sequence (P43220 24-463): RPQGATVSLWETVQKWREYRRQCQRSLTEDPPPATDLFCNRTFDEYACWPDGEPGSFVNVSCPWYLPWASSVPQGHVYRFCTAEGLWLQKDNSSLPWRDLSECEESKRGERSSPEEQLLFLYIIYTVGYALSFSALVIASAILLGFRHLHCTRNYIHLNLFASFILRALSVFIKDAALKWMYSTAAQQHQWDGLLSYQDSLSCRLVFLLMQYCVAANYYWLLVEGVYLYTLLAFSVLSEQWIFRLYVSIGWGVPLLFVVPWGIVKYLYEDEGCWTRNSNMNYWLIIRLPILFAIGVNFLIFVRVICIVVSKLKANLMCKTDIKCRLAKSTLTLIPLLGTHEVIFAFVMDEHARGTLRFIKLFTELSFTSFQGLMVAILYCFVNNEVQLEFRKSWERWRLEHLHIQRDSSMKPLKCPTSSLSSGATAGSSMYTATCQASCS

With `CC[C@H](C)[C@H](NC(=O)[C@H](CC(C)C)NC(=O)[C@H](Cc1c[nH]c2ccccc12)NC(=O)[C@H](CCC(N)=O)NC(=O)[C@@H](NC(=O)[C@H](Cc1ccccc1)NC(=O)[C@H](CCC(=O)O)NC(=O)[C@H](CCCNC(=N)N)NC(=O)[C@H](C)NC(=O)[C@H](CCCNC(=N)N)NC(=O)[C@H](CCCNC(=N)N)NC(=O)[C@H](CC(C)C)NC(=O)[C@H](CC(=O)O)NC(=O)[C@H](CC(C)C)NC(=O)[C@H](Cc1ccc(O)cc1)NC(=O)[C@H](CCCCN)NC(=O)[C@H](CO)NC(=O)[C@H](CC(C)C)NC(=O)[C@H](CC(=O)O)NC(=O)[C@H](CO)NC(=O)[C@@H](NC(=O)[C@H](Cc1ccccc1)NC(=O)[C@@H](NC(=O)CNC(=O)[C@H](CCC(N)=O)NC(=O)C(C)(C)NC(=O)[C@@H](N)Cc1c[nH]cn1)[C@@H](C)O)[C@@H](C)O)C(C)C)C(=O)N[C@@H](CC(N)=O)C(=O)N[C@@H](CCCCNC(=O)CC[C@H](NC(=O)CC[C@H](NC(=O)COCCOCCNC(=O)COCCOCCNC(=O)CC[C@H](NC(=O)CCCCCCCCCCCCCCCCC(=O)O)C(=O)O)C(=O)O)C(=O)O)C(N)=O` [Chem. 22, N^ε29-[(4S)-4-carboxy-4-[[(4S)-4-carboxy-4-[[2-[2-[2-[[2-[2-[2-[[(4S)-4-carboxy-4-(17-carboxyheptadecanoylamino)butanoyl]amino]ethoxy]ethoxy]acetyl]amino]ethoxy]ethoxy]acetyl]amino]butanoyl]amino]butanoyl]-[Aib2,Leu10,Leu16,Arg20,Glu21,Ile27,Lys29]-Glucagon amide] (H-H[Aib]QGTFTSDLSKYLDLRRAREFVQWLINK([γGlu-γGlu-AEEA-AEEA-γGlu-C18 diacid])-NH2; N-terminus assumed), the IC50 at human GLP-1 receptor stood at 0.3 nM. Besides, the “ThT Assay Lag time (h) [Assay (III), pH 7.5]” value (shortened to “ThT Assay Lag time (h)”) in data set [1] is 45.0 h.
Regarding `CC[C@H](C)[C@H](NC(=O)[C@H](CC(C)C)NC(=O)[C@H](Cc1c[nH]c2ccccc12)NC(=O)[C@H](CCC(N)=O)NC(=O)[C@@H](NC(=O)[C@H](Cc1ccccc1)NC(=O)[C@H](CC(=O)O)NC(=O)[C@H](CCCNC(=N)N)NC(=O)[C@H](C)NC(=O)[C@H](CCCNC(=N)N)NC(=O)[C@H](CCCNC(=N)N)NC(=O)[C@H](CC(C)C)NC(=O)[C@H](CC(=O)O)NC(=O)[C@H](CC(C)C)NC(=O)[C@H](Cc1ccc(O)cc1)NC(=O)[C@H](CCCCN)NC(=O)[C@H](CO)NC(=O)[C@H](CC(C)C)NC(=O)[C@H](CC(=O)O)NC(=O)[C@H](CO)NC(=O)[C@@H](NC(=O)[C@H](Cc1ccccc1)NC(=O)[C@@H](NC(=O)CNC(=O)[C@H](CCC(N)=O)NC(=O)C(C)(C)NC(=O)[C@@H](N)Cc1c[nH]cn1)[C@@H](C)O)[C@@H](C)O)C(C)C)C(=O)N[C@@H](CC(N)=O)C(=O)N[C@@H](CCCCNC(=O)CC[C@H](NC(=O)CC[C@H](NC(=O)COCCOCCNC(=O)COCCOCCNC(=O)CC[C@H](NC(=O)CCCCCCCCCCCCCCCCC(=O)O)C(=O)O)C(=O)O)C(=O)O)C(N)=O` [Chem. 23, N^ε29-[(4S)-4-carboxy-4-[[(4S)-4-carboxy-4-[[2-[2-[2-[[2-[2-[2-[[(4S)-4-carboxy-4-(17-carboxyheptadecanoylamino)butanoyl]amino]ethoxy]ethoxy]acetyl]amino]ethoxy]ethoxy]acetyl]amino]butanoyl]amino]butanoyl]-[Aib2,Leu10,Leu16,Arg20,Ile27,Lys29]-Glucagon amide] (H-H[Aib]QGTFTSDLSKYLDLRRARDFVQWLINK([γGlu-γGlu-AEEA-AEEA-γGlu-C18 diacid])-NH2; N-terminus assumed), the IC50 on human GLP-1 receptor was determined as 0.3 nM. In data set [1], the “ThT Assay Lag time (h)” value turned out to be 45.0 h.
Regarding `CC[C@H](C)[C@H](NC(=O)[C@H](CC(C)C)NC(=O)[C@H](Cc1c[nH]c2ccccc12)NC(=O)[C@H](CCC(N)=O)NC(=O)[C@@H](NC(=O)[C@H](Cc1ccccc1)NC(=O)[C@H](CCC(=O)O)NC(=O)[C@H](CCCNC(=N)N)NC(=O)[C@H](C)NC(=O)[C@H](CCCNC(=N)N)NC(=O)[C@H](CCCNC(=N)N)NC(=O)[C@H](CC(C)C)NC(=O)[C@H](CC(=O)O)NC(=O)[C@H](CC(C)C)NC(=O)[C@H](Cc1ccc(O)cc1)NC(=O)[C@H](CCCCN)NC(=O)[C@H](CO)NC(=O)[C@H](CC(C)C)NC(=O)[C@H](CC(=O)O)NC(=O)[C@H](CO)NC(=O)[C@@H](NC(=O)[C@H](Cc1ccccc1)NC(=O)[C@@H](NC(=O)CNC(=O)[C@H](CCC(N)=O)NC(=O)C(C)(C)NC(=O)[C@@H](N)Cc1c[nH]cn1)[C@@H](C)O)[C@@H](C)O)C(C)C)C(=O)N[C@@H](CO)C(=O)N[C@@H](CCCCNC(=O)CC[C@H](NC(=O)CC[C@H](NC(=O)COCCOCCNC(=O)COCCOCCNC(=O)CC[C@H](NC(=O)CCCCCCCCCCCCCCCCC(=O)O)C(=O)O)C(=O)O)C(=O)O)C(N)=O` [Chem. 30, N^ε29-[(4S)-4-carboxy-4-[[(4S)-4-carboxy-4-[[2-[2-[2-[[2-[2-[2-[[(4S)-4-carboxy-4-(17-carboxyheptadecanoylamino)butanoyl]amino]ethoxy]ethoxy]acetyl]amino]ethoxy]ethoxy]acetyl]amino]butanoyl]amino]butanoyl]-[Aib2,Leu10,Leu16,Arg20,Glu21,Ile27,Ser28,Lys29]-Glucagon amide] (H-H[Aib]QGTFTSDLSKYLDLRRAREFVQWLISK([γGlu-γGlu-AEEA-AEEA-γGlu-C18 diacid])-NH2; N-terminus assumed), the IC50 at human GLP-1 receptor is 0.9 nM. Further, the “ThT Assay Lag time (h)” value in data set [1] worked out at 45.0 h.
The matching figures for `CC[C@H](C)[C@H](NC(=O)[C@H](CC(C)C)NC(=O)[C@H](Cc1c[nH]c2ccccc12)NC(=O)[C@H](C)NC(=O)[C@@H](NC(=O)[C@H](Cc1ccccc1)NC(=O)[C@H](CC(=O)O)NC(=O)[C@H](CCC(N)=O)NC(=O)[C@H](C)NC(=O)[C@H](CCCNC(=N)N)NC(=O)[C@H](CCCNC(=N)N)NC(=O)[C@H](CO)NC(=O)[C@H](CCC(=O)O)NC(=O)[C@H](CC(C)C)NC(=O)[C@H](Cc1ccc(O)cc1)NC(=O)[C@H](CCCCN)NC(=O)[C@H](CO)NC(=O)[C@H](Cc1ccc(O)cc1)NC(=O)[C@H](CC(=O)O)NC(=O)[C@H](CO)NC(=O)[C@@H](NC(=O)[C@H](Cc1ccccc1)NC(=O)[C@@H](NC(=O)CNC(=O)[C@H](CCC(N)=O)NC(=O)C(C)(C)NC(=O)[C@@H](N)Cc1c[nH]cn1)[C@@H](C)O)[C@@H](C)O)C(C)C)C(=O)N[C@@H](CO)C(=O)N[C@@H](CCCCNC(=O)CC[C@H](NC(=O)CC[C@H](NC(=O)COCCOCCNC(=O)COCCOCCNC(=O)CC[C@H](NC(=O)CCCCCCCCCCCCCCCCC(=O)O)C(=O)O)C(=O)O)C(=O)O)C(N)=O` [Chem. 35, N^ε29-[(4S)-4-carboxy-4-[[(4S)-4-carboxy-4-[[2-[2-[2-[[2-[2-[2-[[(4S)-4-carboxy-4-(17-carboxyheptadecanoylamino)butanoyl]amino]ethoxy]ethoxy]acetyl]amino]ethoxy]ethoxy]acetyl]amino]butanoyl]amino]butanoyl]-[Aib2,Glu15,Ala24,Ile27,Ser28,Lys29]-Glucagon amide] (H-H[Aib]QGTFTSDYSKYLESRRAQDFVAWLISK([γGlu-γGlu-AEEA-AEEA-γGlu-C18 diacid])-NH2): 2.2 nM and 45.0 h.
